Assay results: patent publication US20210405025A1, “IDENTIFYING COMPOUNDS FOR TREATING CANCER AND USE THEREOF” (THE UAB RESEARCH FOUNDATION, priority 2018, published 2021)
Where a name gives a salt, the structure may show the parent alone.

Tested on: relapsed AML cells
Assay: Drug sensitivity assay, 1,536-well, 3-day culture with individual approved drugs at 10 μM, viability by alamarBlue
Assay type: cell-based, human
Conditions: number of relapsed AML cases out of 18 tested with >70% cell death; 10 μM, 3-day culture
Description: Drug sensitivity assays were performed using a 1,536-well platform where all cells and reagents were deposited in wells using an acoustic liquid handling unit that is highly accurate for dispensing of nanoliter volumes of liquid. […] After dispensing the cells into the wells, an independent drug at a known concentration is added to each well and incubated with the cells. After three days, the percentage of live cells in each well is determined to assess the killing efficiency of each compound. […] Cell viability assays are known to those of skill in the art. See, for example, Pemovska et al., Individualized systems medicine strategy to tailor treatments for patients with chemorefractory acute myeloid leukemia. Cancer Discovery 3:1416-1429, 2013; Pabst et al., Identification of small molecules that support human leukemia stem cell activity ex vivo. Nature Methods 11:436-442, 2014; Baccelli et al., A novel approach for the identification of efficient combination therapies in primary human acute myeloid leukemia specimens. Blood Cancer Journal 7:e529, 2017. In studies described herein, the 1,536-well format was utilized, which allowed for use of four times fewer cells as well as less drug and media components due to the small assay volume of 5 microliters. […] Other compounds like CellTiter-Glo (Promega, Madison, Wis.) are equally appropriate reagents for determining cell viability.
Conditions for the drug screening assays were as described in Pabst et al., Identification of small molecules that support human leukemia stem cell activity ex vivo, Nature Methods 11:436-442, 2014). Using this protocol, cells were cultured in Iscove's Modified Dulbecco's Medium (IMDM), 15% BIT (bovine serum albumin, insulin, transferrin; Stem Cell Technologies 09500 (Vancouver, Calif.)), 100 ng/ml SCF (Shenandoah 100-04 (Warwick, Pa.)), 50 ng/ml FLT3L (Shenandoah 100-21), 20 ng/ml IL-3 (Shenandoah 100-80), 20 ng/ml G-CSF (Shenandoah 100-72), 10^-4 M β-mercaptoethanol, gentamicin (50 μg/ml) and ciprofloxacin (10 μg/ml).
Cells were removed from liquid nitrogen and placed in a 37° C. bath, just until thawed. For 1,536-well screens utilizing 6,000 wells about 100 million cells were thawed. The volume was doubled with pre-warmed culture media and placed on ice for about one to two minutes. The cells were brought to a final volume of about 8 to 10 mL before spinning down at 1,100 rpm for 5 min at 10° C. The pelleted cells were resuspended in 10 mL of culture media and plated in a tissue-culture treated T75 flask at a density of 1 to 2 million cells/ml. The cells were cultured overnight prior to fluorescence-activated cell sorting of viable cells on the following day.
After cells were cultured overnight, a cell scraper was used to remove any cells that adhered to the plastic. The cells were gently pipetted up and down to break up aggregates. Then, the entire volume was transferred to a 50 mL conical tube through a 70 micron cell strainer to remove cell clumps. The T75 flask was rinsed and scraped with about 10 mL HBSS and transferred to the same 50 mL conical tube through the strainer. The harvested cells were spun down at 1,100 rpm for 5 min at 10° C. The cells were then resuspendd in about 300-500 microliters FACS buffer (HBSS+2% FBS+1× propidium iodide) and transferred to a FACS tube. The tube was placed on ice and viable cells that are forward- and side-scatter gated on viable myeloid blasts were sorted by FACS (the scatter gate should exclude small lymphocytes, large myeloid cells, and debris). After sorting the required number of viable cells, the cells were spun down at 1,100 rpm for 5 min at 10° C. and subsequently resuspended at 4,000-4,500 cells per 5 microliter volume of complete culture media with growth factors and penicillin/streptomycin.

Compound | #Cases >70% cell death
CC[C@@]1(O)C(=O)OCc2c1cc1n(c2=O)Cc2cc3c(CN(C)C)c(O)ccc3nc2-1 [TOPOTECAN] | 13
CCCCOc1ccc(OCCCN2CCOCC2)cc1 [PRAMOXINE] | 1
[H]/N=C(\N/C(=N/[H])NCCCCCCNC(=N)NC(=N)Nc1ccc(Cl)cc1)Nc1ccc(Cl)cc1 [CHLORHEXIDINE DIHYDROCHLORIDE] | 11
C#Cc1cccc(Nc2ncnc3cc(OCCOC)c(OCCOC)cc23)c1 [ERLOTINIB] | 6
Cc1cc(C(=O)NOCCO)c(Nc2ccc(I)cc2F)n(C)c1=O [AZD8330] | 2
O=c1[nH]cc(F)c(=O)[nH]1 [FLUOROURACIL] | 4
CC[C@H]1OC(=O)[C@H](C)[C@@H](O[C@H]2C[C@@](C)(OC)[C@@H](O)[C@H](C)O2)[C@H](C)[C@@H](O[C@@H]2O[C@H](C)C[C@H](N(C)C)[C@H]2O)[C@](C)(O)C[C@@H](C)CN(C)[C@H](C)[C@@H](O)[C@]1(C)O [AZITHROMYCIN] | 1
CNC[C@H](O)[C@@H](O)[C@H](O)[C@H](O)CO [MEGLUMINE] | 1
CC(C)OC(=O)CCC/C=C\C[C@@H]1[C@@H](CC[C@@H](O)CCc2ccccc2)[C@H](O)C[C@@H]1O [LATANOPROST] | 1
O=C(Nc1cccnn1)N1CCC(=Cc2cccc(Oc3ccc(C(F)(F)F)cn3)c2)CC1 [PF-4457845] | 1
CCCCCCc1ccc(O)cc1O.Nc1c2ccccc2nc2ccccc12 [ACRISORCIN] | 18
COCCn1c2c([n+](Cc3cnccn3)c1C)C(=O)c1ccccc1C2=O [YM-155] | 18
CN1CCc2c(c3ccccc3n2Cc2ccccc2)C1 [MEBHYDROLIN] | 1
COC1=CC(c2cc3ccccc3[nH]2)=N/C1=C\c1[nH]c(C)cc1C [OBATOCLAX] | 2
Cc1ncc(-c2ccnc(Nc3ccc(S(C)(=O)=O)cc3)n2)n1C(C)C [AZD-5438] | 17
C=CC(=O)Nc1cc(Nc2nccc(-c3cn(C)c4ccccc34)n2)c(OC)cc1N(C)CCN(C)C [OSIMERTINIB (tagrisso), OSIMERTINIB] | 1
CC(C)[C@H](N)C(=O)OCCOCn1cnc2c(=O)[nH]c(N)nc21 [VALACICLOVIR] | 1
CCC(=O)OCC(=O)[C@@]1(OC(=O)CC)[C@@H](C)C[C@H]2[C@@H]3CCC4=CC(=O)C=C[C@]4(C)[C@@]3(Cl)[C@@H](O)C[C@@]21C [BECLOMETHASONE DIPROPIONATE] | 1
CCNC1=Nc2ccc(Cl)cc2C(C)(c2ccccc2)O1 (stereo not drawn) [ETIFOXINE] | 4
C[C@@H]1O[C@@H](O[C@H]2C[C@@H](O)[C@]3(CO)[C@H]4[C@H](O)C[C@]5(C)[C@@H](C6=CC(=O)OC6)CC[C@]5(O)[C@@H]4CC[C@]3(O)C2)[C@H](O)[C@H](O)[C@H]1O.O.O.O.O.O.O.O.O [STROPHANTINE OCTAHYDRATE] | 18
C[C@]12CC[C@H](O)C[C@H]1CC[C@@H]1[C@@H]2C[C@@H](O)[C@]2(C)[C@@H](C3=CC(=O)OC3)CC[C@]12O [DIGOXIGENIN] | 18
O=C(O)/C=C/c1ccc(-c2ccc(O)c(C34CC5CC(CC(C5)C3)C4)c2)cc1 [ADAROTENE] | 11
CN1CCCC(n2nc(Cc3ccc(Cl)cc3)c3ccccc3c2=O)CC1 (stereo not drawn) [AZELASTINE] | 2
COc1cc(NC(C)CCCN)c2ncccc2c1 (stereo not drawn) [PRIMAQUINE] | 12
N#C[C@@H]1C[C@@H]2C[C@@H]2N1C(=O)[C@@H](N)C12CC3CC(CC(O)(C3)C1)C2 [SAXAGLIPTIN] | 1
Cc1cc(C(C)(C)CC(C)(C)C)ccc1OCCOCC[N+](C)(C)Cc1ccccc1.[Cl-] [METHYLBENZETHONIUM CHLORIDE] | 16
O=C1c2c(O)ccc(O)c2C(=O)c2c(NCCNCCO)ccc(NCCNCCO)c21 [MITOXANTRONE] | 18

Compound | #Cases >70% cell death
C#C[C@]1(O)CC[C@H]2[C@@H]3CCc4cc(O)ccc4[C@H]3CC[C@@]21C [ETHINYL ESTRADIOL] | 1
C/C=C(\C)C(=O)N[C@@H](c1ccccc1)[C@@H](O)C(=O)O[C@H]1C[C@@]2(O)[C@@H](OC(=O)c3ccccc3)[C@@H]3[C@]4(OC(C)=O)CO[C@@H]4C[C@H](O)[C@@]3(C)C(=O)[C@H](OC(C)=O)C(=C1C)C2(C)C [CEPHALOMANNINE] | 7
C#C[C@]1(O)CC[C@H]2[C@@H]3CCc4cc(OC5CCCC5)ccc4[C@H]3CC[C@@]21C [QUINESTROL] | 15
Nc1ncnc2c1ncn2CCOCP(=O)(O)O [ADEFOVIR] | 18
COc1ncnc(NS(=O)(=O)c2ccc(N)cc2)c1OC [SULFADOXINE] | 1
CC[C@@H]1/C=C(\C)C[C@H](C)C[C@H](OC)[C@H]2O[C@@](O)(C(=O)C(=O)N3CCCC[C@H]3C(=O)O[C@H](/C(C)=C/[C@@H]3CC[C@H](Cl)[C@H](OC)C3)[C@H](C)[C@@H](O)CC1=O)[C@H](C)C[C@@H]2OC [PIMECROLIMUS] | 2
COc1cc([C@@H]2c3cc4c(cc3[C@@H](O[C@@H]3O[C@@H]5CO[C@@H](C)O[C@H]5[C@H](O)[C@H]3O)[C@H]3COC(=O)[C@H]23)OCO4)cc(OC)c1O [ETOPOSIDE] | 5
Clc1ccc(CSC(Cn2ccnc2)c2ccc(Cl)cc2Cl)cc1 (stereo not drawn) [SULCONAZOLE NITRATE] | 5
C[C@@H](Oc1cc(-n2cnc3ccc(CN4CCN(C)CC4)cc32)sc1C(N)=O)c1ccccc1C(F)(F)F [GSK 461364] | 9
COc1cc2c(cc1OC)CN(CCc1ccc(NC(=O)c3cccc4c(=O)c5cccc(OC)c5[nH]c34)cc1)CC2 | 2
CS(=O)(=O)CCNCc1ccc(-c2ccc3ncnc(Nc4ccc(OCc5cccc(F)c5)c(Cl)c4)c3c2)o1 [LAPATINIB] | 2
Nc1nc(NC2CC2)c2ncn([C@H]3C=C[C@@H](CO)C3)c2n1 [ABACAVIR SULFATE] | 1
O=C(CCCCCCC(=O)Nc1ccccc1)NO [VORINOSTAT] | 18
CCOC(=O)c1c(N)sc2c1CCN(Cc1ccccc1)C2 [Y-3642] | 1
COc1cccc(-c2cc(F)ccc2[C@H]2Cc3nc(N)nc(C)c3C(=O)N2)n1 [HSP-990] | 17
O=C(CCCN1CCN(c2ccccn2)CC1)c1ccc(F)cc1 [AZAPERONE] | 1
CC(=O)[C@@]1(O)CC[C@H]2[C@@H]3C=C(Cl)C4=CC(=O)[C@@H]5C[C@@H]5[C@]4(C)[C@H]3CC[C@@]21C [CYPROTERONE] | 1
CCCCCCCCCCCC[N+](C)(C)CCOc1ccccc1 [DOMIPHEN BROMIDE] | 16
OC(CN1CCC(Cc2ccc(F)cc2)CC1)c1ccc(Cl)cc1 (stereo not drawn) [ELIPRODIL] | 1
CS(=O)(=O)N1CCc2c(-c3cnc(N)nc3)nc(N3CCOCC3)nc21 [CH5132799] | 3
AZD-1152 | 5
CC[C@@H](C(=O)[C@@H](C)[C@@H](O)[C@H](C)CCc1ccc(C)c(O)c1C(=O)O)[C@H]1O[C@](CC)([C@H]2CC[C@](O)(CC)[C@H](C)O2)C[C@@H]1C [LASALOCID SODIUM] | 10
CC(C)(C)c1cnc(CSc2cnc(NC(=O)C3CCNCC3)s2)o1 [BMS-387032] | 18
CCc1nn(CCCN2CCN(c3cccc(Cl)c3)CC2)c(=O)n1CCOc1ccccc1 [NEFAZODONE] | 1
IVERMECTIN | 18
CN1CCC[C@@H]1CCO[C@](C)(c1ccccc1)c1ccc(Cl)cc1 [CLEMASTINE] | 1
CC(=O)OCC(=O)[C@@]12OC(C)(C)O[C@@H]1C[C@H]1[C@@H]3C[C@H](F)C4=CC(=O)C=C[C@]4(C)[C@@]3(F)[C@@H](O)C[C@@]12C [FLUOCINONIDE] | 1
